Measurements: US20060252708A1, “Compositions of flavones and long chain fatty acid derivatives isolated from plants and methods related thereto for the control of prostate disorders” (priority 2005, published 2006)

Legend:
Assay type in all cases: cell-based
androgen receptor (AR) = target: T1, androgen receptor (AR) (Homo sapiens, UniProt P10275); assay: Androgen receptor activation, luciferase reporter gene system in U2OS cells; conditions: 10 nM andrusol, 24 hr incubation, FIG. 1 and FIG. 4
T1 construct: The full length AR cDNA was cloned from human's adipose tissue using PCR; expressed in transfected cells; host or cells: U2OS cells
T1 sequence (P10275 1-920): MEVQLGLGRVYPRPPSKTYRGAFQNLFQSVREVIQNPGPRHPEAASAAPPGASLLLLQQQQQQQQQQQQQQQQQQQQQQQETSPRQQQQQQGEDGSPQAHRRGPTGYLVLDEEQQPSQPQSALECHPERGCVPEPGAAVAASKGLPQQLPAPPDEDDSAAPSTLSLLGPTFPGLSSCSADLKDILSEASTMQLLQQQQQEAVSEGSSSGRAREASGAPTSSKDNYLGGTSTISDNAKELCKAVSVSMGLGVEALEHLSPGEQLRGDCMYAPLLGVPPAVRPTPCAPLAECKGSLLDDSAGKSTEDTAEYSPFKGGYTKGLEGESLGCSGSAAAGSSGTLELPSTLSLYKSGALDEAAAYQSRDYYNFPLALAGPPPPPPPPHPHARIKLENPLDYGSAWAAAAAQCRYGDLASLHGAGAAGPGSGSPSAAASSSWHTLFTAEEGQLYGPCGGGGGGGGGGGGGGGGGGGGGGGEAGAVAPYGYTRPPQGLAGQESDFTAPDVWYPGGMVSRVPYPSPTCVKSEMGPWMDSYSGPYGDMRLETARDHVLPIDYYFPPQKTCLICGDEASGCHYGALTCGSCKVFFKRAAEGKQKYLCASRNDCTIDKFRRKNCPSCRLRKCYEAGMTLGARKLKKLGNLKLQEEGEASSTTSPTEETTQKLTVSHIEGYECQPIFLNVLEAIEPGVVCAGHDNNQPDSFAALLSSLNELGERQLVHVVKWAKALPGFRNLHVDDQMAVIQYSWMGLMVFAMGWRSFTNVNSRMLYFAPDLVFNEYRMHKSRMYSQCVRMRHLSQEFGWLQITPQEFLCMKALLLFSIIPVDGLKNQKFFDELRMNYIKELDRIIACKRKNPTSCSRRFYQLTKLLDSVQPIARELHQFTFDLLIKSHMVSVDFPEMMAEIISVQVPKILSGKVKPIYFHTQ
Protocol: The activation of AR was performed using a luciferase reporting gene system. The full length AR cDNA was cloned from human's adipose tissue using PCR. The primer sequence 1 used was 5′-[…]-3′ (SEQ ID NO:1); the primer sequence 2 used was 5′-[…]-3′ (SEQ ID NO:2). The amplified PCR products were inserted into an expression vector, and then sequenced. The reporter genes were constructed using luciferase detected carrier pGL3-Promoter manufactured by Promega Ltd. Three copies of AR response element were inserted into upstream of pGL3-promoter (element sequence 3 used was 5′-[…] -3′) (SEQ ID NO:3). The co-transfection experiments were conducted in 96-well plates using U2OS cells. 24 hours after transfection, 10 nM andrusol, DMSO (0.1%), and testing compounds were added into cell culture for further 24 hr incubation.

[1] = test system: secreting PSA from LNCaP cells; assay: ELISA of PSA secreted from LNCaP cells (inhibition of PSA secretion); conditions: for Rate of inhibition (%): Table 2, PSA secretion; for inhibition at 1 µg/mL: concentration 1 ug/ml; for inhibition at 3 µg/mL: concentration 3 ug/ml; for inhibition at 6.25 µg/mL: concentration 6.25 ug/ml
Protocol: For example, in cultured androgen-dependent prostate cancer cells as shown in An enzyme-linked immunoadsorbent assay was adopted to determine the level of secreting PSA from LNCaP cells, an androgen-dependent prostate epithelia cancer cells, by the above-mentioned flavones. At first, 100 μl polyclonal Ab at 4 μg/m was added to coat the microplate. They were placed for 12 hours at 4° C., and then washed by PBST and sealed the plate with PBST for 1 hour at 37° C. Supernatants from flavones or mock-treated cells were added into the plate to incubate at water bathed for 2 hours at 37° C. After washing, primary Ab at 200 ng/ml was added and incubated for 1 hour at 37° C. After washing, secondary Ab at 1:8000 was then added and incubated for 1 hour at room temperature. After washing, color reaction substrate was added and incubated for 10 min at dark, then added 2 N sulfuric acid to measure absorption at 492 nm.

[2] = target: T2, estrogen receptor-β (ERβ) (Homo sapiens, UniProt Q92731); assay: Estrogen receptor-β activation, luciferase reporter gene system in U2OS cells; conditions: 10 nM estradiol, 24 hr incubation, FIG. 3
T2 construct: The full length ER-α and ER-β cDNA were separately cloned from human adipose tissue using PCR method; expressed in transfected cells; host or cells: U2OS cells
T2 sequence (Q92731 whole entry): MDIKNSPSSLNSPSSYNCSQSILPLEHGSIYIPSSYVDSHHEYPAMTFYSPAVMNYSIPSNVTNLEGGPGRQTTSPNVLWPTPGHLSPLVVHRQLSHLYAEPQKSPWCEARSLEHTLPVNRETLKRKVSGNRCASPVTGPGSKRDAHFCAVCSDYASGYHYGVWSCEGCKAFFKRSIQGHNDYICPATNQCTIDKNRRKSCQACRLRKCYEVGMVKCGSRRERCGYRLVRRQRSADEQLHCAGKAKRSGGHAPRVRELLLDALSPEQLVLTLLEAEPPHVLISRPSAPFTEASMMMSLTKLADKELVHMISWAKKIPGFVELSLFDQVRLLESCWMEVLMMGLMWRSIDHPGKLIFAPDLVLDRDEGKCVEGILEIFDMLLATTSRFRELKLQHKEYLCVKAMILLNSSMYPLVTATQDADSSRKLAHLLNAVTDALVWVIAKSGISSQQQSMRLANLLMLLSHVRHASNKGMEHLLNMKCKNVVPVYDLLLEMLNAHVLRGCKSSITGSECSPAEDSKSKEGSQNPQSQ
Protocol: (§1) The activation evaluation of the ERs were performed using a luciferase reporter gene system. The full length ER-α and ER-β cDNA were separately cloned from human adipose tissue using PCR method. The primer sequence 4 (ERα) used was 5′-[…]-3′ (SEQ ID NO:4); the primer sequence 5 (ERα) used was 5′-[…]-3′(SEQ ID NO:5); the primer sequence 6 (ERβ) used was 5′-[…]-3′ (SEQ ID NO:6); the primer sequence 7 (ERβ) used was 5′-[…]-3′(SEQ ID NO:7). The amplified PCR products were inserted into expression vector and confirmed by sequencing. The report genes were constructed by using luciferase detected carrier pGL3-Promoter from Promega Ltd. Three copies of ER response element were inserted into the upstream of pGL3-Promoter (sequence 8 used was 5′-[…] -3′ (SEQ ID NO:8)). The co-transfection experiments were conducted in 96-well plates using U2OS cells. 24 hours after transfection, 10 nM estradiol, DMSO (0.1%), and testing compounds were added into cell culture for further 24 hr incubation.

[3] = target: T3, estrogen receptor-α (ERα) (Homo sapiens, UniProt P03372); assay: Estrogen receptor-α activation, luciferase reporter gene system in U2OS cells; conditions: 10 nM estradiol, 24 hr incubation, FIG. 2
T3 construct: The full length ER-α and ER-β cDNA were separately cloned from human adipose tissue using PCR method; expressed in transfected cells; host or cells: U2OS cells
T3 sequence (P03372 1-595): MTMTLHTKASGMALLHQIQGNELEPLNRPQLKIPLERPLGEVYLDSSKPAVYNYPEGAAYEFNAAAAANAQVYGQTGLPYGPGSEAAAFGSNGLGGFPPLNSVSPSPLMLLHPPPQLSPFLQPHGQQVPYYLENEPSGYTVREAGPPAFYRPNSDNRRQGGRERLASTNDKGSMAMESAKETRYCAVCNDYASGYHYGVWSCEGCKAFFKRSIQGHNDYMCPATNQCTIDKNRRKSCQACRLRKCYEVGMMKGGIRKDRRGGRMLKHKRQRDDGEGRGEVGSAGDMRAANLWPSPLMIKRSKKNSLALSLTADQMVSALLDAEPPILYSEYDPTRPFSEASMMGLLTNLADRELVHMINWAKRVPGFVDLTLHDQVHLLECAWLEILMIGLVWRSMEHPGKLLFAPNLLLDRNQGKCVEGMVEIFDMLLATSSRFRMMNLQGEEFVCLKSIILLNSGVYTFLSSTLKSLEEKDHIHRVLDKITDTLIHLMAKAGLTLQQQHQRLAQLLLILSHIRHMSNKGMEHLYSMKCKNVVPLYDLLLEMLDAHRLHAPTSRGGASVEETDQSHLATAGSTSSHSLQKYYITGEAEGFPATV
Protocol: as §1

[4] = Homo sapiens, PSA secretion, read-out: Rate of inhibition (%)
[5] = Homo sapiens, PSA secretion, concentration 12.5 ug/ml, read-out: Rate of inhibition (%)
[6] = Homo sapiens, PSA secretion, concentration 25 ug/ml, read-out: Rate of inhibition (%)
[7] = Homo sapiens, PSA secretion, concentration 50 ug/ml, read-out: Rate of inhibition (%)

Row | Compound | Inhibition of androgen receptor (AR) activation (androgen receptor (AR)) | Rate of inhibition (%) ([1]; concentration 5 ug/ml) | Rate of inhibition (%) ([1]; concentration 12.5 ug/ml) | Rate of inhibition (%) ([1]; concentration 25 ug/ml) | Rate of inhibition (%) ([1]; concentration 50 ug/ml) | inhibition at 1 µg/mL [1, 4] [%] | inhibition at 3 µg/mL [1, 4] [%] | inhibition at 6.25 µg/mL [1, 4] [%] | inhibition at 12.5 µg/mL [1, 5] [%] | inhibition at 25 µg/mL [1, 6] [%] | inhibition at 50 µg/mL [1, 7] [%] | Effect on estrogen receptor-β (ERβ) activation [2] | Effect on estrogen receptor-α (ERα) activation [3] | further results
1 | CCC=CCC=CCC=CCCCCCCCC(=O)NCCO [Long chain amide, N-(2-ethoxyl)-9,12,15-linolenamide] | Inhibition of androgen receptor (AR) activation | 9.7 | 31 | 63 | 71 | – | – | – | – | – | – | – | – | Rate of inhibition (%) ([1]; concentration 20 ug/ml): 52%
2 | CCC=CCC=CCC=CCCCCCCCC(=O)OC[C@@]1(O)O[C@H](CO)[C@@H](O)[C@@H]1O [Octadecatrienoic acid fructoside, 9,12,15-octadecatrienoic acid 1-O-β-D-fructoside] | Inhibition of androgen receptor (AR) activation | 23 | 57 | 76 | – | – | – | – | – | – | – | – | – | Rate of inhibition (%) ([1]; concentration 10 ug/ml): 40%
3 | O=c1c(O)c(-c2ccc(O)cc2)oc2cc(O)cc(O)c12 [kaempferol] | – | – | – | – | – | 53 | 60 | 69 | 65 | 66 | 89 | – | – | –
4 | O=c1cc(-c2ccc(O)c(O)c2)oc2cc(O)cc(O)c12 [luteolin] | Inhibition of androgen receptor (AR) activation | – | – | – | – | 37 | 48 | – | – | – | – | Inhibition | Inhibition | inhibition at 10 µg/mL ([1]; Homo sapiens, PSA secretion, concentration 10 ug/ml, read-out: Rate of inhibition (%)): 57%; inhibition at 20 µg/mL ([1]; Homo sapiens, PSA secretion, concentration 20 ug/ml, read-out: Rate of inhibition (%)): 67%; inhibition at 40 µg/mL ([1]; Homo sapiens, PSA secretion, concentration 40 ug/ml, read-out: Rate of inhibition (%)): 100%
5 | O=C1C[C@@H](c2ccc(O)cc2)Oc2cc(O)cc(O)c21 [naringenin] | Inhibition of androgen receptor (AR) activation | – | – | – | – | – | – | 78 | 84 | 87 | 88 | Inhibition | Inhibition | –
6 | hexadecanoic 1-O-β-D-fructoside [Hexadecanoic fructoside] | Inhibition of androgen receptor (AR) activation | 4.5 | 8.4 | 26 | 42 | – | – | – | – | – | – | – | – | Rate of inhibition (%) ([1]; concentration 100 ug/ml): 76%
